# Results from patent publication US20240124539A1, “CROSSLINKED HELIX DIMER MIMICS OF SOS AND METHODS OF USING SAME” (NEW YORK UNIVERSITY, priority 2020, published 2024).
# Positions of bridges follow the written chain, without caps; N, C: chain ends. Non-standard residues stand in square brackets, D forms with d. Residues, ends and D or L forms follow the SMILES beside them. Chains are numbered I, II in the order given. No end group written: not given here. dibenzylether crosslinker = scaffold alkylating both cysteine thiols (drawn in Scheme 1 and; hArg = N=C(N)NCCCC[C@H](N)C(=O)O; DZ = diazirine photocrosslinker
# How the values were obtained:
# [1] = biological target: T1, wild-type His6-tagged H-Ras (1-166) pre-loaded with GDP (Homo sapiens, UniProt P01112); assay: Fluorescence polarization binding assay, wild-type H-Ras-GDP
# T1 construct: wild-type and mutant His6-tagged H-Ras (1-166) pre-loaded with GDP; made in house; host or cells: Escherichia coli (BL21)
# Source text: GTP of the Ras-specific nucleotide exchange factor SOS. Cell 112, 685-695 (2003).
# H-Ras = biological target: T2, H-Ras (Homo sapiens, UniProt P01112); assay: Photoaffinity labeling of purified H-Ras and tryptic digest MS; format: binding; conditions: 5 eq. probe, UV light, trypsin digest
# T2 construct: Wild-type and mutant N-terminal His6-H-Ras (residues 1-166) in pProEx HTb expression vector; His6 (N, cleaved yes); made in house; host or cells: Escherichia coli (BL21)
# Method: For each experiment, a sample of 250 μM diazirine-labeled CHD peptide was
# Incubated samples were then photo-irradiated for 5 minutes at 24 °C. Photo-conjugated samples were then mixed with 1× SDS-PAGE loading buffer containing 5% 2-mercaptoethanol (200 μL final volume) and heated at 95° C. for 5 minutes. Heated samples were then separated via SDS-PAGE gel electrophoresis on a 1.0 mm 15% polyacrylamide gel. The resulting gel was stained with Coomassie Brilliant Dye and subsequently destained (40% MeOH/10% acetic acid/50% water).
# In-gel tryptic digest was conducted with the In-Gel tryptic Digestion Kit (Thermo Scientific) according the manufacturer's instructions. Upon photoaffinity labeling, the conjugated band was isolated as a 1×1 mm segment for in-gel trypsin digest. The isolated gel band was then incubated with 200 μL of Coomassie destaining solution (25 mM ammonium bicarbonate in 1:1 ultrapure water:acetonitrile) for 30 minutes at 37 °C. After incubation, destaining buffer was removed, and the destaining step was repeated twice more. The destained gel band was treated with reducing buffer (25 mM of ammonium bicarbonate, 50 mM TCEP) for 10 minutes at 60° C. After discarding the reducing buffer, the band was treated with 200 μL of iodoacetamide alkylation solution (25 mM ammonium bicarbonate, 100 mM iodoacetamide) for 30 minutes at 37° C. while shaking in the dark. […]
# H358 cells = assay: Photoaffinity labeling with quantitative MS-based proteomics in H358 cells; format: cell-based, Homo sapiens; conditions: TMT abundance, negative control diazirine probe
# Method: H358 cells were grown to 80-95% confluence in 10 cm plates with FBS-supplemented RPMI-1640. The growth medium was aspirated and the cells were washed with Dulbecco's phosphate-buffered saline (DPBS). The cells were then incubated with serum-free medium containing probes DZ2-CHC^Sos-5 (20 μM in RPMI-1640 with 0.4% DMSO, two replicates) or control probe CP-2-66 (20 μM in RPMI-1640 with 0.4% DMSO, four replicates) for 4 hours at 37° C. under an atmosphere of 5% CO2 before being irradiated under UV light (365 nm, 30 min, 4° C.). The cells were washed with DPBS, scraped and transferred to 1.5 mL Eppendorf tubes, pelleted, and stored at −80° C. until the next step.
# Cell pellets were resuspended in 500 μL of DPBS and lysed by sonication (15 ms on, 40 ms off, 15% amplitude, 1 s total on×2). Protein concentrations were normalized (1-2 mg/mL; final volume of 500 μL with DPBS) using the Lowry Protein Assay (Pierce). To each sample was added solutions of tris((1-benzyl-4-triazolyl)methyl)amine (30 μl, 1.7 mM in DMSO/t-BuOH 1:4 v/v), tris(2-carboxyethyl)phosphine (10 μL, 50 mM), biotin-PEG3-azide (5 μL, 100 μM), and CuSO4 (10 μL, 50 mM) and the samples were shaken at room temperature for 1 hour. A cold MeOH/CHCI3 mixture (2.5 mL, 4:1 v/v) was added to each lysate, followed by 1 mL of cold DPBS. The resulting mixture was vortexed and centrifuged (4,700× g, 10 min, 4° C.). The organic and aqueous layers were aspirated, and the remaining protein disk was further washed via sonication in cold MeOH/CHCl3 solution (2 mL, 4:1) and pelleted by centrifugation (4,700× g, 10 min, 4° C.). The protein pellet was aspirated and combined with freshly prepared urea solution (500 μL, 6 M in DPBS) and a solution of SDS (with 10 μL of 10% w/v) by sonication. A freshly prepared 1:1 solution (50 μL) of TCEP (200 mM in DPBS) and K2CO3 (600 mM in DPBS) was added and the mixture was incubated for 30 min at 37° C. with shaking. A solution of freshly prepared iodoacetamide (70 μL, 400 mM in DPBS) was added and the mixture was incubated at RT in the absence of light. Each sample was combined with a solution of SDS (130 μL, 10% in DPBS w/v) followed by DPBS (5.5 mL) and incubated with pre-equilibrated streptavidin-agarose beads (100 μL of a 50% slurry; Pierce) for 1.5 hours at RT while rotating. The streptavidin beads were pelleted by centrifugation (750 g, 2 min, 4° C.) and sequentially washed with SDS solution (1×5 mL, 0.2% in DPBS), DPBS (2×5 mL), and triethylammonium bicarbonate buffer (1×5 mL, TEAB, 100 mM, pH 8.4). The beads were resuspended in TEAB (0.5 mL, 100 mM pH 8.5) and transferred into LoBind microcentrifuge tubes. The tube was washed once more with TEAB (0.5 mL, 100 mM pH 8.5) to ensure complete transfer of the beads, which were then pelleted by centrifugation (750× g, 2 min, 4° C. and the supernatant aspirated. Each sample of beads was combined with a solution of CaCl2 (2 μL, 100 mM) and a solution of sequencing-grade porcine trypsin (2 μg, Promega in 200 μL TEAB, 100 mM, pH 8.4), and incubated for 14 hours at 37° C.with shaking. The beads were pelleted by centrifugation (750× g, 2 min, 4° C.) and the supernatants were transferred to new
# LoBind micro-centrifuge tubes. Each digested sample was TMT 10plex labeled (Thermo Fisher Scientific): for each sample a stock solution of TMT reagent (8 μL, 20 μg/μL) was added along with dry MS-grade acetonitrile (final acetonitrile concentration 30% v/v), followed by incubation at RT for 1 hour. The reaction was quenched by adding hydroxylamine (6 μL) and left to stand for 15 min, followed by the addition of formic acid (5 μL). Each TMT-labeled sample was dried via vacuum centrifugation, and the samples were combined by redissolving one sample in a solution of trifluoroacetic acid (TFA, 200 μL, 0.1% in water) and transferring the solution into each sample tube until all samples were redissolved. […]
compound,measurement,setting,value
"CC[C@H](C)[C@H](NC(=O)[C@H](Cc1ccccc1)NC(C)=O)C(=O)NCC(=O)N[C@@H](CCCNC(=N)N)C(=O)N[C@@H](CC(C)C)C(=O)N[C@@H](CSCc1ccc(COCc2ccc(CSC[C@H](NC(=O)[C@H](CC(C)C)NC(=O)[C@H](CCCNC(=N)N)NC(=O)[C@H](C)NC(=O)[C@H](CC(C)C)NC(=O)[C@H](CCC(=O)O)NC(=O)[C@H](CCCNC(=N)N)NC(=O)[C@H](CCC(=O)O)NC(=O)[C@H](CC(C)C)NC(=O)[C@H](CCC(=O)O)NC(=O)[C@H](CCCNC(=N)N)NC(=O)[C@H](CC(C)C)NC(=O)[C@H](CCCNC(=N)N)NC(=O)[C@H](Cc3c[nH]c4ccccc34)NC(=O)[C@H](C)NC(=O)[C@H](CC(C)C)NC(C)=O)C(N)=O)cc2)cc1)C(=O)N[C@H](C(=O)N[C@@H](CC(N)=O)C(=O)N[C@H](C(=O)N[C@@H](CC(C)C)C(=O)N[C@@H](CCCCN)C(=O)N[C@@H](CC(C)C)C(=O)N[C@@H](CCCNC(=N)N)C(=O)N[C@@H](CCC(=O)O)C(=O)NCC(=O)N[C@@H](CC(N)=O)C(N)=O)[C@@H](C)CC)[C@@H](C)O [CHC^Sos-1] (HELM PEPTIDE1{[ac].F.I.G.R.L.C.T.N.I.L.K.L.R.E.G.N.[am]}|PEPTIDE2{[ac].L.A.W.R.L.R.E.L.E.R.E.L.A.R.L.C.[am]}|CHEM1{[c1cc(C[*:1])ccc1COCc1ccc(C[*:2])cc1]}$PEPTIDE1,CHEM1,7:R3-1:R1|PEPTIDE2,CHEM1,17:R3-1:R2$$$V2.0)",Kd,[1],32 ± 6 µM
DZ1-CHC^Sos-5: CHD^Sos-5 with diazirine photocrosslinker at N-terminus of αI helix: DZ-GLAWRLRELERELARLC-NH2 (chain 1 WIGRLCTEI[hArg]RLRNGN; chain 2 {DZ}-GLAWRLRELERELARLC-NH2; linker I:6-II:17 via dibenzylether crosslinker),Ras binding site by photo-crosslinking,H-Ras,photo-crosslinked with the Ras hinge region
C#CCCC1(CCC(=O)NC)N=N1 [CP-266],Average Abundance CP-266,H358 cells; enriched protein AHSA1 (O95433),157
same,Average Abundance CP-266,H358 cells; enriched protein EEF1D (P29692),614
same,Average Abundance CP-266,H358 cells; enriched protein HNRNPR (O43390),1745
same,Average Abundance CP-266,H358 cells; enriched protein PMVK (Q15126),177
same,Average Abundance CP-266,H358 cells; enriched protein PPP4C (P60510),60
same,Average Abundance CP-266,H358 cells; enriched protein STK26 (Q9P289),170
